{
  "source": "paper PMC6981391",
  "about": "“The Selective Class IIa Histone Deacetylase Inhibitor TMP195 Resensitizes ABCB1- and ABCG2-Overexpressing Multidrug-Resistant Cancer Cells to Cytotoxic Anticancer Drugs” (International Journal of Molecular Sciences, 2019)",
  "key": {"[1]": {"target": "T1, ABCB1 (Homo sapiens, UniProt P08183)", "T1 construct": "membrane vesicles from High-Five insect cells infected with recombinant baculovirus containing ABCB1", "T1 sequence (P08183 whole entry)": "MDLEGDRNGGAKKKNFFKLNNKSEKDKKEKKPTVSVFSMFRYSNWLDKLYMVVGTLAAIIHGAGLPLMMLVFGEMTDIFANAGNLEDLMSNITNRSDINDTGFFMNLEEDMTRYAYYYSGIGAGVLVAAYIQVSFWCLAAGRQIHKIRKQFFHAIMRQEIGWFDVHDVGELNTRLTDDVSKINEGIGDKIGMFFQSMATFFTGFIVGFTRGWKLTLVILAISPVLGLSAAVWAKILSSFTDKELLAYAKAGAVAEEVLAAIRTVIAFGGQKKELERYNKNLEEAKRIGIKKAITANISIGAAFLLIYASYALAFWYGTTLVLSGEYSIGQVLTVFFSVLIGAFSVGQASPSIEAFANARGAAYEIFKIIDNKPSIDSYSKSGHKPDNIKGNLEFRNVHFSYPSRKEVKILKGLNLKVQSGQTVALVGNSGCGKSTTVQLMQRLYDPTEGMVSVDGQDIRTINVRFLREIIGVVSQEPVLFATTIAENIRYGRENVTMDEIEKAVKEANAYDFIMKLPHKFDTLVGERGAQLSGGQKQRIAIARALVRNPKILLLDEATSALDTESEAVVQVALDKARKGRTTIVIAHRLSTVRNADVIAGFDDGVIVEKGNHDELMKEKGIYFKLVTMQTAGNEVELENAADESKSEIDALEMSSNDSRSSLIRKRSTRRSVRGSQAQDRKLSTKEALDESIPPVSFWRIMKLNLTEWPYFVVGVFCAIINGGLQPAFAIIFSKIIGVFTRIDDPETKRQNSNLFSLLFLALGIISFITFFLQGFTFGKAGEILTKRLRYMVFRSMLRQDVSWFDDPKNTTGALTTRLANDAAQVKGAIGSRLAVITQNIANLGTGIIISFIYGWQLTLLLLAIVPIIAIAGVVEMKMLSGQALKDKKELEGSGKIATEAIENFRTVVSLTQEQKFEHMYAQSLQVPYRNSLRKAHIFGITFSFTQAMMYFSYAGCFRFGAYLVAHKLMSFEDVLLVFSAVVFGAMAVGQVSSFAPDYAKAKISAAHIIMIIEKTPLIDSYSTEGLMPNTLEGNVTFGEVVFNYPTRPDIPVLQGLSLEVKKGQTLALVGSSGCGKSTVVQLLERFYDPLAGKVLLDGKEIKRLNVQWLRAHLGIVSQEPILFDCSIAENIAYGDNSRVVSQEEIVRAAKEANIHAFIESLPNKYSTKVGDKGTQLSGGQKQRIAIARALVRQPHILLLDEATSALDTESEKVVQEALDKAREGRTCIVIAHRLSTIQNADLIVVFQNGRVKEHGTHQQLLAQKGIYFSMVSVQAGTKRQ", "experiment": "stimulation of vanadate-sensitive ATPase activity in membrane vesicles (endpoint Pi assay); also inhibits calcein-AM efflux in MDR19-HEK293 and KB-V-1 cells", "type": "biochemical"}, "[2]": {"target": "T2, ABCG2 (Homo sapiens, UniProt Q9UNQ0)", "T2 sequence (Q9UNQ0 1-655)": "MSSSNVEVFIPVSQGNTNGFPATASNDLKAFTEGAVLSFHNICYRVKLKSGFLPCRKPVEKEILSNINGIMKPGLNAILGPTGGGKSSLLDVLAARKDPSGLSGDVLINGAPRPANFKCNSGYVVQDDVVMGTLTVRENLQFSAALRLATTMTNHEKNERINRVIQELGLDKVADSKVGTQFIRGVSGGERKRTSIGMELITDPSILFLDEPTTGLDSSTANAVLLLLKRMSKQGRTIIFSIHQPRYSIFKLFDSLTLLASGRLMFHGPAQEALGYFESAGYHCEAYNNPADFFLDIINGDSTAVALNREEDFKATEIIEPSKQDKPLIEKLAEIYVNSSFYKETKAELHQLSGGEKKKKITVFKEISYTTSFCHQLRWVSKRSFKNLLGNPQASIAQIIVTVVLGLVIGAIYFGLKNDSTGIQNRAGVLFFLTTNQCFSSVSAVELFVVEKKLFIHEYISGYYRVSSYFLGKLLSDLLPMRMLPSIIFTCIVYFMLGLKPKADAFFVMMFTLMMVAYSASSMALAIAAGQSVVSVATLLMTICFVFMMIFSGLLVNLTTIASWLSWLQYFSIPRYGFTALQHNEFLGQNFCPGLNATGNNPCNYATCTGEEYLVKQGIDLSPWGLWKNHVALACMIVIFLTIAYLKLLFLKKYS", "experiment": "biochemical"}},
  "data": [
    {"compound": "CC(C)(CNC(=O)c1cccc(-c2noc(C(F)(F)F)n2)c1)c1coc(-c2ccccc2)n1", "note": "[TMP195]", "values": [
      {"measurement": "EC50", "setting": "[1]", "value": "~2000", "unit": "nM"},
      {"measurement": "EC50", "setting": "[2]", "value": "~400", "unit": "nM"}
    ]}
  ]
}
